We go through one compound from patent US20070031347A1, “Powdered Medicaments Containing A Tiotropium Salt and Salmeterol Xinafoate” (Boehringer Ingelheim Pharma GmbH & Co. KG, priority 2002, published 2007).

A short description of this series: compacted bulk volume (tapped density, Ph. Eur. 4 / Carr packed bulk density). The series is classed as physicochemical. How it is done:
The compacted bulk volume is determined by the test method of the European Pharmacopoeia 4 (2002): “apparent density after settling”/“density of settled product”, identical to the “tapped density”, measured in grams per millilitre) or as the “Carr packed bulk density” according to the ASTM standard (D6393-99, Standard Test Method for Bulk Solids Characterization by Carr Indices), measured in grams per cm^3. The compacted bulk volume is a measurement of the volume which is taken up by solid, comminuted materials after they have been compacted under defined conditions.

SMILES strings stand for the structures.

Consider `OCc1cc(C(O)CNCCCCCCOCCCCc2ccccc2)ccc1O` (centres unmarked) [salmeterol xinafoate], for which the compacted bulk volume by setting is: (crystalline salmeterol xinafoate as obtained from ethanol/tert.butylmethylether, before micronisation) 0.27 g/mL; (micronised salmeterol xinafoate (air jet mill, grinding pressure 7.5 bar, feed pressure 8.0 bar)) 0.19 g/mL.
